Measured values reported in patent US20080234337A1, “Preventive and/or Remedy for Hyperkalemia Containing Ep4 Agonist” (ONO PHARMACEUTICAL CO., LTD., priority 2004, published 2008).

Target: T1, EP4 (Cavia porcellus, UniProt Q1HG69)
T1 construct: Tissue samples including submucosal ganglia and mucosa were obtained by removal of myenteric plexus; from tissue; host or cells: guinea pig distal colon (mucosa with submucosal ganglia), mounted in Ussing flux chambers
Experiment: Short-circuit current (Isc) measurement of colonic ion transport in guinea pig distal colon tissue using Ussing flux chamber (investigation of EP4 agonistic activity)
Assay type: cell-based

T1 sequence (Q1HG69 1-487): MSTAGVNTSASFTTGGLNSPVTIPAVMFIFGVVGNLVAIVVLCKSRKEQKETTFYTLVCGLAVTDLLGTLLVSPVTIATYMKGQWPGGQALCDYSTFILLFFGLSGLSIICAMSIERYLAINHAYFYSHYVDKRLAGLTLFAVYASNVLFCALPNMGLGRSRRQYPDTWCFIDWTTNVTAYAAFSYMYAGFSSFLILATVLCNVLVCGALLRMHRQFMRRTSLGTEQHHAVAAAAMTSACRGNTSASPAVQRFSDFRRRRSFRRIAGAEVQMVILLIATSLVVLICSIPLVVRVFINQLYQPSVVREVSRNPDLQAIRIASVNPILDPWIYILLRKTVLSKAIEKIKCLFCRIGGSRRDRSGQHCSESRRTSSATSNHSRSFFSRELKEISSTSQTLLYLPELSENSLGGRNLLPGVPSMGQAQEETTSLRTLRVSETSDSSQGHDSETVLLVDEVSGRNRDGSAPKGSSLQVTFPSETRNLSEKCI

SMILES	change of short-circuit current (Isc) (addition of test compound into serosal chamber, concentration not given, FIG. 3)	decrease of short-circuit current (Isc) in presence of EP4 antagonist (PGE2 at low concentration plus EP4 antagonist (not named))	change of short-circuit current (Isc) (added into serosal chamber at 10^-5 mol/L, tetrodotoxin and piroxicam pretreatment, FIG. 1)	change of short-circuit current (Isc) (added into serosal chamber at 10^-6 mol/L, tetrodotoxin and piroxicam pretreatment, FIG. 1)	change of short-circuit current (Isc) (added into serosal chamber at from 10^-8 to 10^-7 mol/L, tetrodotoxin and piroxicam pretreatment, FIG. 1)	change of short-circuit current (Isc) (low concentration)	potassium secretion (suggested by decrease of Isc) (low concentration)
COCc1cccc(C[C@H](O)/C=C/[C@H]2[C@H](O)CC(=O)[C@@H]2SCCCSCC(=O)O)c1 [compound 1, ({3-[((1R,2S,3R)-3-hydroxy-2-{(1E,3S)-3-hydroxy-4-[3-(methoxymethyl)phenyl]but-1-enyl}-5-oxocyclopentyl)sulfanyl]propyl}sulfanyl)acetic acid]	decrease of short-circuit current (Isc)	–	–	–	–	–	–
CCCCC[C@H](O)/C=C/[C@H]1[C@H](O)CC(=O)[C@@H]1C/C=C\CCCC(=O)O [PGE2]	–	countered by EP4 antagonist	biphasic [Transient phase, Sustained Phase] change of short-circuit current (Isc)	temporary increase of Isc	decrease of Isc	decrease of short-circuit current (Isc)	promoted the potassium secretion
